Reference: ChEMBL document CHEMBL5729531, “Neprilysin inhibitors” (2023)

Biological target: Neprilysin/Angiotensin-converting enzyme (Homo sapiens, UniProt P12821+P08473)
Experiment: Enzyme Inhibition Assay: The assays were performed in 384-well white opaque plates at 37° C. using the fluorogenic peptide substrates at a concentration of 10 μM in Assay Buffer (NEP: 50 mM HEPES, pH 7.5, 100 mM NaCl, 0.01% polyethylene glycol sorbitan monolaurate (Tween-20), 10 μM ZnSO4; ACE: 50 mM HEPES, pH 7.5, 100 mM NaCl, 0.01% Tween-20, 1 μM ZnSO4). The respective enzymes were used at …
Format: protein-complex assay
Description: Enzyme Inhibition Assay: The assays were performed in 384-well white opaque plates at 37° C. using the fluorogenic peptide substrates at a concentration of 10 μM in Assay Buffer (NEP: 50 mM HEPES, pH 7.5, 100 mM NaCl, 0.01% polyethylene glycol sorbitan monolaurate (Tween-20), 10 μM ZnSO4; ACE: 50 mM HEPES, pH 7.5, 100 mM NaCl, 0.01% Tween-20, 1 μM ZnSO4). […] Test compounds were added to the enzymes and incubated for 30 minute at 37° C. prior to initiating the reaction by the addition of substrate. Reactions were terminated after 20 minutes of incubation at 37° C. by the addition of glacial acetic acid to a final concentration of 3.6% (v/v).

Structure (SMILES): O=C(O)C(=O)NC(Cc1ccc(-c2ccccc2)cc1)CC(O)C(=O)O (stereo unspecified)
- Ki: 35.5 nM
